Experimental data taken from US12172988B2, “Anticancer and antifungal splice modulators” (priority 2021, dated 2024).
Like-named read-outs stand apart in the source and are kept apart here.

How the values were obtained:
[1] = in vivo; cited from earlier work
SF2 = test: qPCR gene expression of alternative splicing factor SF2; type: cell-based, human; settings: for SF2 RNA expression: HCT116, 24 h, 100, 250, 500 nM, compared to 1
Procedure: (§1) HCT116 tumor cells were treated with each analogue at 20 times the G150 value (Table 12) for 4 hours and then cellular RNA was isolated and purified for qPCR. Primers were designed to evaluate intron retention or exon skipping, direct responses to splice modulator treatment. Genes evaluated included those involved in splicing regulation (SF3A1, SF3A3, SF3B1, SF3B2), apoptosis (MCL-1L), protein folding (DNAJB1), and cell cycle regulation (AURKA, PLK-1) relative to the unspliced control GAPDH. For alternative splicing regulator (SF2), primers were designed to evaluate gene expression, which changes in response splice modulator treatment for SF2 relative to the unspliced control GAPDH. (−) denotes untreated cells.
as §1, with “analogues” for “each analogue”, “100 nM (light grey), 250 nM (grey), or 500 nM (black)” for “20 times the G150 value (Table 12)”, “24 h” for “4 hours”, “(MCL-1L), and” for “(MCL-1L),”, “(DNAJB1),” for “(DNAJB1), and cell cycle regulation (AURKA, PLK-1)”, “(—)” for “(−)”
Next, we turned our efforts to explore the ability of these analogues to modulate splicing. […] We treated cells for 4 h so that we could evaluate early changes in splicing activity, and then cellular RNA was isolated and purified for analyses by qPCR (FIG. 14). Most importantly, none of the concentrations tested led to significant changes in cell viability, ensuring that changes in gene expression were not due to cell death.
(§2) For these studies, we evaluated the expression of genes involved in splicing regulation (SF3A1, SF3A3, SF3B1, SF3B2), apoptosis (MCL-1L), protein folding (DNAJB1), and cell cycle regulation (AURKA, PLK-1) relative to the unspliced control GAPDH. Primers were designed to evaluate intron retention or exon skipping, direct responses to splice modulator treatment. The master splicing regulator alternative splicing factor (SF2) was also evaluated, with the primers for this gene designed to evaluate overall gene expression, which changes in response to splice modulator treatment.
From this 4 h study (FIG. 14), a small set of analogs (1, 1b, 1g, 1d, 1e, 1i and 1j) were selected to evaluate if effects on splicing when presented for a longer 24 h period. […] Using identical procedures as that used for 4 h, HCT116 cells were treated with three concentrations (100 nM, 250 nM and 500 nM) of each analog for 24 h. […]

[2] = compared with C16-C17 isomers / pladienolides, cited from earlier work
AURKA = test: qPCR splicing analysis, AURKA exon skipping / expression; type: cell-based, human; settings: HCT116, 24 h, 100, 250, 500 nM
Procedure: as §1
Next, we turned our efforts to explore the ability of these analogues to modulate splicing. […] We treated cells for 4 h so that we could evaluate early changes in splicing activity, and then cellular RNA was isolated and purified for analyses by qPCR (FIG. 14). […]
as §2, with “Primers were designed to evaluate intron retention or exon skipping, direct responses to splice modulator treatment.” left out, “treatment. […]” for “treatment.”
Cells were treated with 1 or 1a-1j in media (McCoy's 5a (Life Technologies) supplemented with 10% FBS, 2 mM L-glutamine, and 100 U mL^−1 of penicillin and 100 μg mL^−1 of streptomycin 0.5% DMSO) for 4 h or 24 h. […] The amount of unspliced RNA for different genes was determined using Power SYBR Green PCR master mix (Applied Biosystems) by qPCR using specific primers for each gene. qPCR using 2.5 μM of each primer was performed on 5 ng of the obtained cDNA. qPCR conditions were as follows: 95° C. for 10 min for one cycle, then 95° C. for 10 min for one cycle, then 95° C. for 30 s, 55° C. for 60 s, 72° C. for 60 s, for 40 cycles using the MXPro. […]

SF3A3 = test: qPCR splicing analysis, SF3A3 intron retention; type: cell-based, human; settings: HCT116, 24 h, 100, 250, 500 nM
Procedure: as §1
HCT116 tumor cells were treated with analogues at 100 nM (light grey), 250 nM (grey), or 500 nM (black) for 24 h and then cellular RNA was isolated and purified for qPCR. […] Genes evaluated included those involved in splicing regulation (SF3A1, SF3A3, SF3B1, SF3B2), apoptosis (MCL-1L), and protein folding (DNAJB1), relative to the unspliced control GAPDH. […]
For these studies, we evaluated the expression of genes involved in splicing regulation (SF3A1, SF3A3, SF3B1, SF3B2), apoptosis (MCL-1L), protein folding (DNAJB1), and cell cycle regulation (AURKA, PLK-1) relative to the unspliced control GAPDH. […]

**Q.** With `CC[C@H](OC)[C@@H](C)[C@H]1O[C@@H]1[C@@H](O)[C@H](C)/C=C/C=C(\C)[C@H]1OC(=O)C[C@H](O)CC[C@@](C)(O)[C@@H](OC(C)=O)/C=C/[C@@H]1C` [Analog 1d, 17S-FD-895] as the compound, how does the MTD [1] read?
**A.** The MTD was 4 mg/kg.

**Q.** What about the “SF2 RNA expression” value (SF2) of the same compound?
**A.** The value was “decreased effect at reducing”.

**Q.** And the “stability (words)” value [2]?
**A.** Its value is “increased stability”.

**Q.** What about the “stability (words)” value ([2]; listed as 17S-FD-895) of the same compound?
**A.** Its value is “metabolically-improved”.

**Q.** What does the source list for `CC[C@H](OC)[C@@H](C)[C@H]1O[C@@H]1[C@@H](O)[C@H](C)/C=C/C=C(\C)[C@H]1OC(=O)C[C@@H](O)CC[C@@](C)(O)[C@@H](OC(C)=O)/C=C/[C@@H]1C` [Analog 1g, 3S,17S-FD-895]?
**A.** down regulating the expression of SF2 RNA (SF2; HCT116, 4 h, 20 times GI50, qPCR): highest efficacy; SF2 RNA expression (SF2): reduced ability to inhibit SF2 RNA expression; AURKA expression (AURKA): altered the expression of AURKA comparable to 1; SF3A3 intron retention (SF3A3): concentration dependent increase intron retention

**Q.** Which AURKA expression (AURKA) does the source give for `CC[C@@H](OC)[C@H](C)[C@H]1O[C@@H]1[C@@H](O)[C@H](C)/C=C/C=C(\C)[C@H]1OC(=O)C[C@H](O)CC[C@@](C)(O)[C@@H](OC(C)=O)/C=C/[C@@H]1C` [Analog 1j, 17S,20S,21R-FD-895] here?
**A.** Its AURKA expression is “reducing the expression of AURKA at 500 nM”.
